The values below are quoted from earlier work in patent US20260007632A1, “FORMULATIONS OF DOCETAXEL” (Zhuhai Beihai Biotech Co., Ltd., priority 2020, published 2026).

Each structure is given as a SMILES string.

One data set has as its system microtubule. Particulars: relative to paclitaxel.

As for `CC(=O)Oc1ccccc1C(=O)O` [aspirin], for the setting “at 25° C.”, the “volume of ethanol required to dissolve 1 g” value is 5 mL and the “volume of water required to dissolve 1 g” value was 300 mL.
For the compound `CC(=O)O[C@@]12CO[C@@H]1C[C@H](O)[C@@]1(C)C(=O)[C@H](O)C3=C(C)[C@@H](OC(=O)[C@H](O)[C@@H](NC(=O)OC(C)(C)C)c4ccccc4)C[C@@](O)([C@@H](OC(=O)c4ccccc4)[C@H]21)C3(C)C` [docetaxel], the solubility in water entry is given as “very poor water solubility”. The “potency in inhibiting microtubule depolymerization” value in the data set on microtubule was “about twice as potent as paclitaxel”.
